Converted amounts (≈) assume the structure as drawn.
How the values were obtained:
Staphylococcus aureus [1] = experiment: Antibacterial activity against Staphylococcus aureus ATCC 25923; format: functional
[2] = target: T1, Phospho-N-acetylmuramoyl-pentapeptide-transferase (Aquifex aeolicus (strain VF5), UniProt O66465); experiment: Inhibition of MraY in Aquifex aeolicus
T1 sequence (O66465 whole entry): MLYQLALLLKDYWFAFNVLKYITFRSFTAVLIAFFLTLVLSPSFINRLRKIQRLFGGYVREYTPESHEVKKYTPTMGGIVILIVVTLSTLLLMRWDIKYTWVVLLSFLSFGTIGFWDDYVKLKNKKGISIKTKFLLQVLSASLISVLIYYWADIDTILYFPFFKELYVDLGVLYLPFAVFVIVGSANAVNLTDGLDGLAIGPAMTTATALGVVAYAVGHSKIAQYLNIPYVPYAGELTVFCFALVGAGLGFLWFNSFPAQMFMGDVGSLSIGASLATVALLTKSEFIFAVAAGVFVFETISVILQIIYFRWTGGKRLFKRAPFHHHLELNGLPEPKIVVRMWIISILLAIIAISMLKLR

Citrobacter freundii = experiment: Antibacterial activity against Citrobacter freundii ATCC 8090; format: functional
Enterococcus faecium [3] = experiment: Antibacterial activity against Enterococcus faecium ATCC 19434; format: functional
Staphylococcus aureus [4] = experiment: Antibacterial activity against methicillin resistant Staphylococcus aureus ATCC 43300; format: functional
Escherichia coli [5] = experiment: Antibacterial activity against Escherichia coli ATCC 8730; format: functional
Pseudomonas aeruginosa [6] = experiment: Antibacterial activity against Pseudomonas aeruginosa ATCC 27853; format: functional
Staphylococcus aureus [7] = experiment: Antibacterial activity against methicillin resistant Staphylococcus aureus SR3637; format: functional
Pseudomonas aeruginosa [8] = experiment: Antibacterial activity against Pseudomonas aeruginosa YY165; format: functional
Acinetobacter baumannii = experiment: Antibacterial activity against Acinetobacter baumannii ATCC 19606; format: functional; conditions: ATCC 19606 = CIP 70.34 = JCM 6841
Enterococcus faecium [9] = experiment: Antibacterial activity against Enterococcus faecium SR7917 (VRE); format: functional
Enterococcus faecalis [10] = experiment: Antibacterial activity against Enterococcus faecalis ATCC 29212; format: functional
Enterococcus faecalis [11] = experiment: Antibacterial activity against Enterococcus faecalis SR7914 (VRE); format: functional
Haemophilus influenzae = experiment: Antibacterial activity against Haemophilus influenzae ATCC 10211; format: functional
Pseudomonas aeruginosa [12] = experiment: Antibacterial activity against Pseudomonas aeruginosa PAO1 deltamexB; format: functional
Escherichia coli [13] = experiment: Antibacterial activity against Escherichia coli ATCC 25922; format: functional
[14] = target: T2, Phospho-N-acetylmuramoyl-pentapeptide-transferase (Staphylococcus aureus, UniProt P0C1R8); experiment: Inhibition of MraY in Staphylococcus aureus
T2 sequence (P0C1R8 whole entry): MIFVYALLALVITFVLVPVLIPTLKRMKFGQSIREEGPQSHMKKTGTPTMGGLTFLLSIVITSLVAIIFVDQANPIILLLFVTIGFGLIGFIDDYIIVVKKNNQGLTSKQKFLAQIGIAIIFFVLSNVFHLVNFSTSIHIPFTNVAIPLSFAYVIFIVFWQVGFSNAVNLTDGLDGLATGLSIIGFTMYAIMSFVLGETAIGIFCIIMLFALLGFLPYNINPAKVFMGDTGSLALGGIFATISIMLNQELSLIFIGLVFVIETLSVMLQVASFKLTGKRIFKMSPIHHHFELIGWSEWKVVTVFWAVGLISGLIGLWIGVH

Streptococcus pneumoniae = experiment: Antibacterial activity against Streptococcus pneumoniae; format: functional
Staphylococcus aureus [15] = experiment: Antibacterial activity against methicillin susceptible Staphylococcus aureus ATCC 29213; format: functional
[16] = target: T3, Phospho-N-acetylmuramoyl-pentapeptide-transferase (Bacillus subtilis (strain 168), UniProt Q03521); experiment: Inhibition of MraY in Bacillus subtilis
T3 sequence (Q03521 whole entry): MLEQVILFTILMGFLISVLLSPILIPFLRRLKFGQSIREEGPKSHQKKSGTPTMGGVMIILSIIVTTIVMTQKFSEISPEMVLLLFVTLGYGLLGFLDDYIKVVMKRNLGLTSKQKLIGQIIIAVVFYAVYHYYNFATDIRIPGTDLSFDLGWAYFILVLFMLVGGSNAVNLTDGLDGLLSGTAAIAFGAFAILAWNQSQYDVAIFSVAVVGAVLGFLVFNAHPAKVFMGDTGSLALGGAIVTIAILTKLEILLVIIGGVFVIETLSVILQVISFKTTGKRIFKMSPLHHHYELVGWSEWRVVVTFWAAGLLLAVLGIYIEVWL

Structure (SMILES) | MIC (Staphylococcus aureus [1]) [µg/mL] | IC50 [2] [µM] | MIC (Citrobacter freundii) [µg/mL] | MIC (Enterococcus faecium [3]) [µg/mL] | MIC (Staphylococcus aureus [4]) [µg/mL] | MIC (Escherichia coli [5]) [µg/mL] | MIC (Pseudomonas aeruginosa [6]) [µg/mL] | MIC (Staphylococcus aureus [7]) [µg/mL] | MIC (Pseudomonas aeruginosa [8]) [µg/mL] | MIC (Acinetobacter baumannii) [µg/mL] | MIC (Enterococcus faecium [9]) [µg/mL] | MIC (Enterococcus faecalis [10]) [µg/mL] | MIC (Enterococcus faecalis [11]) [µg/mL] | MIC (Haemophilus influenzae) [µg/mL] | MIC (Pseudomonas aeruginosa [12]) [µg/mL] | MIC (Escherichia coli [13]) [µg/mL] | IC50 [14] [µM] | MIC (Streptococcus pneumoniae) [µg/mL] | MIC (Staphylococcus aureus [15]) [µg/mL] | IC50 [16] [µM]
NC[C@H]1O[C@@H](O[C@@H](Cc2cn(CCCCCCCCCCc3ccccc3)nn2)[C@H]2O[C@@H](n3ccc(=O)[nH]c3=O)[C@H](O)[C@@H]2O)[C@H](O)[C@@H]1O | 32 (≈ 47.6 µM) | 20 | > 128 | 64 (≈ 95.1 µM) | 16 (≈ 23.8 µM) | > 128 | > 128 | – | – | – | – | – | – | – | – | – | – | – | – | –
NC[C@H]1O[C@@H](O[C@@H](Cn2cc(CCCCCCCCCCOc3ccc(C(=O)c4ccccc4)cc3)nn2)[C@H]2O[C@@H](n3ccc(=O)[nH]c3=O)[C@H](O)[C@@H]2O)[C@H](O)[C@@H]1O | 16 (≈ 20.2 µM) | 25 | > 128 | 128 (≈ 161 µM) | 8 (≈ 10.1 µM) | > 128 | > 128 | – | – | – | – | – | – | – | – | – | – | – | – | –
CC(=O)N[C@@H]1CCN[C@@H]([C@@H](O[C@@H]2O[C@H](CN)[C@@H](O)[C@H]2O)[C@H]2O[C@@H](n3ccc(=O)[nH]c3=O)[C@H](O)[C@@H]2O)C1 | – | – | – | > 64 | – | – | – | > 64 | > 64 | > 64 | > 64 | > 64 | > 64 | > 64 | > 64 | > 64 | > 4200 | > 64 | > 64 | –
NC[C@H]1O[C@@H](O[C@@H](c2cn(CCCCCOc3ccc(C(=O)c4ccccc4)cc3)nn2)[C@H]2O[C@@H](n3ccc(=O)[nH]c3=O)[C@H](O)[C@@H]2O)[C@H](O)[C@@H]1O | > 128 | – | > 128 | > 128 | 64 (≈ 90.3 µM) | > 128 | > 128 | – | – | – | – | – | – | – | – | – | – | – | – | 100
CC(=O)N[C@H]1CCN[C@H]([C@H](O[C@@H]2O[C@H](CN)[C@@H](O)[C@H]2O)[C@H]2O[C@@H](n3ccc(=O)[nH]c3=O)[C@H](O)[C@@H]2O)C1 | – | – | – | > 64 | – | – | – | > 64 | > 64 | > 64 | > 64 | > 64 | > 64 | > 64 | > 64 | > 64 | 4000 | > 64 | > 64 | –
CCCCCCCCCCCCCCCCC[C@H]1CN(C)[C@@H]([C@H](O[C@@H]2O[C@H](CN)[C@@H](O)[C@H]2O)[C@H]2O[C@@H](n3ccc(=O)[nH]c3=O)[C@H](O)[C@@H]2O)C(=O)N(C)[C@@H]1C(=O)O | – | – | – | 8 (≈ 10 µM) | – | – | – | 8 (≈ 10 µM) | – | – | 8 (≈ 10 µM) | 4 (≈ 5.01 µM) | 8 (≈ 10 µM) | – | – | – | 6.9 | – | 8 (≈ 10 µM) | –
NC[C@H]1O[C@@H](O[C@@H](c2cn(Cc3ccc(COc4ccc(C(=O)c5ccccc5)cc4)cc3)nn2)[C@H]2O[C@@H](n3ccc(=O)[nH]c3=O)[C@H](O)[C@@H]2O)[C@H](O)[C@@H]1O | > 128 | 75 | > 128 | > 128 | 32 (≈ 43.1 µM) | > 128 | > 128 | – | – | – | – | – | – | – | – | – | – | – | – | 50
CCCCCCCCCCCCCCCCC[C@H]1CN[C@@H]([C@H](O[C@@H]2O[C@H](CN)[C@@H](O)[C@H]2O)[C@H]2O[C@@H](n3ccc(=O)[nH]c3=O)[C@H](O)[C@@H]2O)C(=O)N(C)[C@@H]1C(=O)O | – | – | – | 8 (≈ 10.2 µM) | – | – | – | 8 (≈ 10.2 µM) | – | – | 16 (≈ 20.4 µM) | 8 (≈ 10.2 µM) | 16 (≈ 20.4 µM) | – | – | – | 3.8 | – | 8 (≈ 10.2 µM) | –
CCCCCCCCCCc1cn(C[C@H](O[C@@H]2O[C@H](CN)[C@@H](O)[C@H]2O)[C@H]2O[C@@H](n3ccc(=O)[nH]c3=O)[C@H](O)[C@@H]2O)nn1 | 16 (≈ 26.8 µM) | 35 | > 128 | > 128 | 64 (≈ 107 µM) | > 128 | 128 (≈ 215 µM) | – | – | – | – | – | – | – | – | – | – | – | – | –
NC[C@H]1O[C@@H](O[C@@H](Cn2cc(CCCCCCCCCCc3ccccc3)nn2)[C@H]2O[C@@H](n3ccc(=O)[nH]c3=O)[C@H](O)[C@@H]2O)[C@H](O)[C@@H]1O | 64 (≈ 95.1 µM) | 30 | > 128 | 32 (≈ 47.6 µM) | 16 (≈ 23.8 µM) | > 128 | 64 (≈ 95.1 µM) | – | – | – | – | – | – | – | – | – | – | – | – | –
NC[C@H]1O[C@@H](O[C@@H](Cc2cn(Cc3ccc(COc4ccc(C(=O)c5ccccc5)cc4)cc3)nn2)[C@H]2O[C@@H](n3ccc(=O)[nH]c3=O)[C@H](O)[C@@H]2O)[C@H](O)[C@@H]1O | 64 (≈ 84.6 µM) | 20 | > 128 | > 128 | 32 (≈ 42.3 µM) | > 128 | > 128 | – | – | – | – | – | – | – | – | – | – | – | – | –
CCCCCCCCCCn1cc(C[C@H](O[C@@H]2O[C@H](CN)[C@@H](O)[C@H]2O)[C@H]2O[C@@H](n3ccc(=O)[nH]c3=O)[C@H](O)[C@@H]2O)nn1 | 128 (≈ 215 µM) | 15 | > 128 | > 128 | 64 (≈ 107 µM) | > 128 | > 128 | – | – | – | – | – | – | – | – | – | – | – | – | –
CC(=O)N[C@H]1CCN[C@H]([C@@H](O[C@@H]2O[C@H](CN)[C@@H](O)[C@H]2O)[C@H]2O[C@@H](n3ccc(=O)[nH]c3=O)[C@H](O)[C@@H]2O)C1 | – | – | – | > 64 | – | – | – | > 64 | > 64 | > 64 | > 64 | > 64 | > 64 | > 64 | > 64 | > 64 | > 4200 | > 64 | > 64 | –
